Experimental data published in patent US4668725A, “Stabilizing compounds for organic polymers, and stabilized polymer compounds which contain them” (Enichem Sintesi S.p.A., priority 1984, dated 1987).

Key:
[1] = Melt flow index variation of stabilised polypropylene on repeated extrusion; design: unit not given here; settings: ASTM-D1238, 90° C., 2.16 kg/cm^2
Procedure: (§1) Accelerated thermal ageing tests are also carried out on polypropylene stabilised by the stabilising compounds of the present invention, and in particular the following tests are carried out:
measurements of the variation in the melt flow index of the polypropylene containing the stabilising compound and subjected to repeated extrusion.
Finally, the melt flow index variation measurements are carried out on polypropylene powder mixed with the stabilising compound by stirring for 30 minutes in a planetary mixer. The repeated extrusions are carried out in an extruder of 19 mm diameter, of length 25 times its diameter, and provided with a 2 mm nozzle and a screw, the compression ratio being 1:4, the speed being 50 r.p.m. The temperature profile along the extruder is 175° C.; 230° C.; 270° C.; 270° C.
After each extrusion, the filament obtained is cut into granules to be subjected to a new extrusion passage.
At the end of each passage, some of the granules are used for measuring the melt flow index in accordance with ASTM-D1238, operating at 90° C. and at a pressure of 2.16 kg/cm^2.
The melt flow index values after 1, 3, 5 and 7 passages through the extruder are shown for polypropylene stabilised by certain stabilisers according to the present invention in Table 3.
(§2) The polypropylene used for the tests is the commercial product Moplen® FL 20F of the Montedison Company.
Melt flow index of polypropylene containing the stabilising compound as a function of the number of successive passages through the extruder.

[2] = Phenoxy radical formation and stability by ESR after reaction of stabilising compound with benzoyl peroxide in toluene; settings: 2% by weight each of compound and benzoyl peroxide in toluene; 70° C. for 24 hours, then at rest to ambient temperature
Description: In the case of stabilising compounds of phenolic nature, phenolic radicals characterised by long life have to form within the polymer in order for the antioxidant activity of the stabilising compound to take effect, and therefore the formation and stability of radicals of this type, originating from the reaction between the stabilising compounds of the present invention and benzoyl peroxide in toluene, are taken as parameters for evaluating the stabilising action of the stabilising compounds concerned.
In particular, in this test, toluene solutions containing 4% by weight of the stabilising compound are prepared simultaneously with solutions containing the same weight percentage of benzoyl peroxide. A small quantity of the stabilising compound solution is then mixed with an equal quantity of the benzoyl peroxide solution.
After mixing, a solution containing 2% by weight of each component is obtained. 1 ml of the resultant solution is then transferred to an ESR (electronic spin resonance) sample tube where it is degassed and sealed under vacuum. The system obtained in this manner is heated to 70° C. for 24 hours. The radical stability is checked by ESR spectra both during the 24 hour heating period and during the subsequent time, in which the system is left at rest to cool to ambient temperature.

[3] = Accelerated oven ageing of polypropylene film: growth of carbonyl index (IR band at 1720 cm^-1); settings: air circulation oven at 140° C.; 0.1% of the weight of the polymer; 100 μm film; extrapolated to zero carbonyl index; absent stabiliser: 2
Procedure: as §1
measurements of the growth of the carbonyl index on polypropylene film containing the stabilising compound and subjected to thermal treatment; and
In the first case, the carbonyl index is evaluated from the IR spectrum for the film, by measuring the band intensity at 1720 cm^-1, and is defined by the relationship: [formula] where Io is the initial band intensity, It is the intensity at time t and S is the film thickness in μm.
The polypropylene film containing the stabilising compound is prepared by dissolving the stabilising compound in benzene and mixing the resultant solution with powdered polypropylene containing no other additive.
The stabilising compound is added in a quantity of 0.1% of the weight of the polymer. The benzene is then removed by evaporation under reduced pressure, and the residual powder is pressed into a film of 100 μm thickness.
The pressing is carried out at a temperature of 160° C. under a pressure of 900 kg/cm^2 for a time of 5 minutes. The film is extracted from the press and is rapidly cooled under running water.
The film prepared in this manner is then subjected to accelerated ageing in an air circulation oven at 140° C.
as §2
Time of oven treatment (at 140° C.) required for inducing the formation of the IR band at 1720 cm^-1 in polypropylene films without stabilising compound and with stabilising compound.

| Melt flow index of polypropylene containing the stabilising compound ([1]; 1 extrusion) | Melt flow index of polypropylene containing the stabilising compound ([1]; 3 extrusions) | Melt flow index of polypropylene containing the stabilising compound ([1]; 5 extrusions) | Melt flow index of polypropylene containing the stabilising compound ([1]; 7 extrusions) | Compound | t 1/2: time required to reduce to one half the ESR signal intensity for the phenoxy radicals [2] | t 1/4: time required to reduce to one quarter the ESR signal intensity for the phenoxy radicals [2] | Induction time for the formation of the IR band at 1720 cm^-1 (carbonyl band) in polypropylene films [3] |
| --- | --- | --- | --- | --- | --- | --- | --- |
| 7.42 | 10.36 | 13.09 | 15.78 | CC(C)(C)c1cc(CCC(=O)Nc2ccc(OC(=O)CCc3cc(C(C)(C)C)c(O)c(C(C)(C)C)c3)cc2)cc(C(C)(C)C)c1O [Example 4, phenylene-1-[3-(4'-hydroxy-3',5'-di-tert-butylphenyl)propionate]-4-[3-(4'-hydroxy-3',5'-di-tert-butylphenyl)propionamide]] | 15 h | 150 h |  |
|  |  |  |  | CC(C)(C)c1cc(CCC(=O)Oc2cc(C(=O)O)cc(OC(=O)CCc3cc(C(C)(C)C)c(O)c(C(C)(C)C)c3)c2OC(=O)CCc2cc(C(C)(C)C)c(O)c(C(C)(C)C)c2)cc(C(C)(C)C)c1O [Example 2, benzene-3,4,5-tri[3-(4'-hydroxy-3',5'-di-tert-butylphenyl)propionate]-1-carboxylic acid] |  |  | 160 h |
|  |  |  |  | CC(C)(C)c1cc(CCC(=O)Oc2cccc(OC(=O)CCc3cc(C(C)(C)C)c(O)c(C(C)(C)C)c3)c2OC(=O)CCc2cc(C(C)(C)C)c(O)c(C(C)(C)C)c2)cc(C(C)(C)C)c1O [Example 1, benzene-1,2,3-tri[3-(4'-hydroxy-3',5'-di-tert-butylphenyl)propionate]] | 20 h | 100 h | 260 h |
| 7.34 | 9.91 | 12.59 | 14.61 | CC(C)(C)c1cc(CCC(=O)OCCOc2ccc(OCCOC(=O)CCc3cc(C(C)(C)C)c(O)c(C(C)(C)C)c3)cc2)cc(C(C)(C)C)c1O [Example 3, 1,4-phenylene-bis-(oxyethylidene)-bis-[3-(4'-hydroxy-3',5'-di-tert-butylphenyl)propionate]] | 24 h | 90 h | 575 h |
